Earlier results in patent US6797282B2, “Combination progestin oral contraceptive regimen” (Ortho-McNeil Pharmaceutical, Inc., priority 1997, dated 2004).

Test system: endometrium
Details: primates; Wilborn et al 1984

## C#C[C@]1(OC(C)=O)CC[C@H]2[C@@H]3CCC4=CC(=NO)CC[C@@H]4[C@H]3CC[C@@]21CC (mixture of isomers) [Norgestimate]
  effect on endometrium in comparison to other progestins: endometrial sparing effect
